# Measurements: a flash point compilation (Sun et al. 2020)
row,flash point [°C],SMILES
1,59,C[C@H]1CCCC[C@H]1O (relative stereo) [cis-2-methylcyclohexanol]
2,-36,CSC [dimethylsulfide]
3,46,CCCC(=O)OCC(C)C [isobutylbutanoate]
4,-3,CSC(C)(C)C [tert-butylmethylsulfide]
5,115,CCCCNC(C)=O [N-butylacetamide]
6,-7,CCC(C)(C)OC [methyltert-pentylether]
7,69,CCCCCCCC(=O)OC [methyloctanoate]
8,95,CCCCCCCCCCC=O [undecanal]
9,11,CC(C)(C)O [tert-butylalcohol]
10,4,CC(=O)OC(C)(C)C [tert-butylacetate]
11,74,Ic1ccccc1 [iodobenzene]
12,93,CCCCSSCCCC [dibutyldisulfide]
13,-29,COCC(C)C [isobutylmethylether]
14,18,CC(=O)OCC(C)C [isobutylacetate]
15,13,CC(=O)C1CC1 [cyclopropylmethylketone]
16,14,C/C=C/CCCCC [trans-2-octene]
17,67,O=[N+]([O-])C1CCCC1 [nitrocyclopentane]
18,49,CCCCOC(=O)CCC [butylbutanoate]
19,82,CCC(=O)OCc1ccco1 [furfurylpropanoate]
20,12,NC1CCCC1 [cyclopentylamine]
21,120,CCCCCOC(=O)c1ccccc1 [pentylbenzoate]

row,flash point [°C],SMILES
1,106,CCNC(C)=O [N-ethylacetamide]
2,39,CCCCCOC(C)=O [pentylacetate]
3,71,OC1CCCCCC1 [cycloheptanol]
4,41,CCCCCC(=O)OC [methylhexanoate]
5,70,C[C@H]1CC[C@H](O)CC1 [trans-4-methylcyclohexanol]
6,6,"C[C@H]1CC[C@H](C)CC1 [trans-1,4-dimethylcyclohexane]"
7,68,C=CC(=O)OC1CCCCC1 [cyclohexylacrylate]
8,16,C=CCSCC [allylethylsulfide]
9,14,COC(=O)OC [dimethylcarbonate]
10,52,IC1CCCC1 [iodocyclopentane]
11,59,CCCC(=O)OCCC(C)C [isopentylbutanoate]
12,86,Cc1cccc(O)c1 [m-cresol]
13,60,CCCCSCCCC [dibutylsulfide]
14,-33,C/C=C\C(C)C [cis-4-methyl-2-pentene]
15,44,CCCCCCOC=O [hexylformate]
16,63,CC(C)(C)C(=O)OC(=O)C(C)(C)C [pivalicanhydride]
17,40,CCCCCCC=O [heptanal]
18,20,C=COC(=O)CCC [vinylbutanoate]
19,57,CCCSSCC [ethylpropyldisulfide]
20,98,c1ccc(C2CCCCC2)cc1 [cyclohexylbenzene]
21,35,CCCN(CCC)CCC [tripropylamine]

# The remaining lines, values behind:
row,SMILES,flash point [°C]
1,C=CCCO [3-buten-1-ol],32
2,CCCCCC(C)C [2-methylheptane],4
3,CCCCCCCCCCN [1-decanamine],85
4,C=CCCCCCCCCO [9-decen-1-ol],119
5,"CCC(CC)C(C)(C)C [3-ethyl-2,2-dimethylpentane]",13
6,"COc1ccccc1OC [1,2-dimethoxybenzene]",87
7,C1=CC2CCC1C2 [2-norbornene],-14
8,CCCC(C)Br (configuration not stated) [2-bromopentane],21
9,"C1COCO1 [1,3-dioxolane]",-6
10,CCCC1CCC(=O)CC1 [4-propylcyclohexanone],86
11,CCC#CCC [3-hexyne],-14
12,"CCC(C)(C)CC(C)(C)C [2,2,4,4-tetramethylhexane]",31
13,CCCC#CCCCC [4-nonyne],35
14,CCCCC(=O)CC [3-heptanone],38
15,CCCCCCCS [1-heptanethiol],46
16,CC(C)C(=O)O [2-methylpropanoicacid],59
17,CCN1CCCCC1 [1-ethylpiperidine],18
18,CCCCCC(O)CC (configuration not stated) [3-octanol],68
19,CCCCCCCCC(C)=O [2-decanone],85
20,C=Cc1cccc(C)c1 [3-methylstyrene],48
21,CC(C)CC(=O)OC(=O)CC(C)C [3-methylbutanoicanhydride],91
22,CCc1cccc(O)c1 [3-ethylphenol],94

row,SMILES,flash point [°C]
1,CCc1ccccc1Br [1-bromo-2-ethylbenzene],79
2,"CCN(CC)c1ccccc1 [N,N-diethylaniline]",88
3,CCCCCCC(O)CC (configuration not stated) [3-nonanol],79
4,C=CC#N [acrylonitrile],-5
5,"CCCC(C)(C)C(C)(C)C [2,2,3,3-tetramethylhexane]",31
6,C1CC[C@H]2CCCC[C@@H]2C1 [trans-decalin],53
7,CC1CCCC1=O (configuration not stated) [2-methylcyclopentanone],26
8,"CC(=O)N(C)C [N,N-dimethylacetamide]",66
9,CCCCCCC(C)c1ccccc1 (configuration not stated) [(1-methylheptyl)benzene],100
10,CCCCC(C)(CC)CC [3-ethyl-3-methylheptane],41
11,"C1=CCCC=C1 [1,3-cyclohexadiene]",-16
12,C=CC(=O)OC [methylacrylate],-3
13,CCCCCCCCCCC(C)O (configuration not stated) [2-dodecanol],113
14,Oc1ccccc1Cl [2-chlorophenol],72
15,CC#CCCCCCCC [2-decyne],53
16,CCNCC [diethylamine],-23
17,CC(C)(C)c1ccco1 [2-tert-butylfuran],7
18,CC(C)C(C)S (configuration not stated) [3-methyl-2-butanethiol],9
19,CCC(=O)OCCc1ccccc1 [2-phenylethylpropionate],113
20,"CCCCC(C)(C)C [2,2-dimethylhexane]",-3
21,C1CCCC1 [cyclopentane],-37
22,CCC(C)O (configuration not stated) [2-butanol],24

row,SMILES,flash point [°C]
1,CC(C)(C)C1CCCCC1=O (configuration not stated) [2-tert-butylcyclohexanone],72
2,CCCCCC[N+](=O)[O-] [1-nitrohexane],72
3,"CC1OCCO1 [2-methyl-1,3-dioxolane]",-2
4,C=CCCl [3-chloropropene],-28
5,CCOCCO [2-ethoxyethanol],42
6,CC(=O)CC(C)C [4-methyl-2-pentanone],14
7,CSCCC=O [4-thiapentanal],61
8,CC(=O)OC(C)c1ccccc1 (configuration not stated) [1-phenylethylacetate],91
9,CCC(CC)C(=O)O [2-ethylbutanoicacid],87
10,Cc1ccccc1F [2-fluorotoluene],12
11,CCC(C)c1ccccc1N (configuration not stated) [2-sec-butylaniline],102
12,CCCc1cccs1 [2-propylthiophene],32
13,"CCN(C=O)CC [N,N-diethylformamide]",65
14,"CC(Cl)CCCl (configuration not stated) [1,3-dichlorobutane]",31
15,"CCCC(C)C(C)CC (configuration not stated) [3,4-dimethylheptane]",15
16,CCC(C)I (configuration not stated) [2-iodobutane],24
17,"C=C(Cl)Cl [1,1-dichloroethene]",-25
18,C=CC(=C)C [isoprene],-48
19,CCCC(CC)CCC [4-ethylheptane],15
20,Cc1cccc(Br)c1 [3-bromotoluene],75
21,CCCS [1-propanethiol],-14
22,C#CCC(C)C [4-methyl-1-pentyne],-24

row,SMILES,flash point [°C]
1,"CCC(C)C(C)C(C)C (configuration not stated) [2,3,4-trimethylhexane]",15
2,CC1CCCO1 (configuration not stated) [2-methyltetrahydrofuran],-12
3,CCCCCCCO [1-heptanol],70
4,Cc1cccc(F)c1 [3-fluorotoluene],12
5,C=CC(C)CC (configuration not stated) [3-methyl-1-pentene],-33
6,"CCC(C)CCCC(C)C (configuration not stated) [2,6-dimethyloctane]",34
7,CCCBr [1-bromopropane],-4
8,CCNC1CCCCC1 [N-ethylcyclohexanamine],45
9,CC(C)(C)Cl [2-chloro-2-methylpropane],-23
10,CCCC(I)CC (configuration not stated) [3-iodohexane],55
11,C=CCCCCCCCCCCCCCC [1-hexadecene],129
12,CCCC(C)S (configuration not stated) [2-pentanethiol],15
13,C=CC(=O)OCCCC [butylacrylate],37
14,C=C(C)CCCC [2-methyl-1-hexene],-8
15,CCc1cccc(C)c1N [2-ethyl-6-methylaniline],102
16,SCc1ccccc1 [benzylmercaptan],70
17,CC#CCCCCCC [2-nonyne],39
18,CCCCC(C)Br (configuration not stated) [2-bromohexane],40
19,C=CC(C)O (configuration not stated) [3-buten-2-ol],20
